In patent publication US9545461B2, “Anti-microbial peptides and methods of use thereof” (priority 2011, dated 2017):
Square brackets hold non-standard residues; d marks the D form. Ends that are not written are not given here. pY = N[C@@H](Cc1ccc(OP(=O)(O)O)cc1)C(=O)O

Legend:
[1] = system: cystic fibrosis isolate 2192; settings: Pseudomonas aeruginosa, 3 h, 200 μg/ml
Procedure: (§1) Crude lysates of media-treated and human tear fluid-treated cells were collected by freeze-thawing in KBM or saline (for assays) or 10 mM Tris-HCl (pH 8.5) (for mass spectrometry). Serial fractionation of lysates was performed using centrifugal filters with cutoffs at ˜100, ˜10 and ˜3 kDa (Millipore). […] Synthetic peptides of hKRT6A were obtained from Biomatik at a purity of >95%. Antimicrobial activity against Pseudomonas aeruginosa clinical and laboratory isolates, as well as ATCC strains of Escherichia coli, Enterococcus faecalis, Serratia marcescens, Staphylococcus epidermidis, Staphylococcus aureus, Streptococcus pyogenes and Candida albicans (˜10^6 cfu/ml each) were evaluated by viable counts at 3 h. […] Statistical analysis between two groups was performed using Student's t-Test.
(§2) Pseudomonas aeruginosa corneal clinical isolates 6294 (invasive) and 6206 (cytotoxic), cystic fibrosis clinical isolate 2192, laboratory strains PAO1 (invasive), PA14 (cytotoxic), PAC1R and its series of isogenic LPS mutants (PAC1R algC-, 557, 605, 611) were used in this study. […] Starting inoculum at a concentration of ˜10^8 cfu/ml was prepared fresh by suspending bacteria in KBM media (Lonza) until OD650 reading is ˜0.1. […]

laboratory strain PAO1 = assay: Antimicrobial activity assay (viable counts at 3 h); type: cell-based, Pseudomonas aeruginosa; settings: after 3 h, 200 μg/ml in 0.9% NaCl
Procedure: as §1, §2

[2] = system: P. aeruginosa clinical isolate 6206 cytotoxicity to TiHCE cells; assay: Cytotoxicity assay (trypan blue staining) in TiHCE cells; type: cell-based, Pseudomonas aeruginosa; settings: 3 h
Procedure: To assess protective activity of against bacterial invasion, high-calcium treated TiHCE cells were incubated with P. aeruginosa clinical isolate 6294 (40 μl/well; 10^6 cfu/ml in crude lysates/lysate fractions versus KBM control for 3 h or 10^8 cfu/ml in peptide-containing saline versus no-peptide saline control for 2 h), followed by gentamicin treatment (200 μg/ml for 1 h). Viable intracellular bacteria was collected with 0.25% Triton-X in PBS (100 μl/well) and quantified by plating on TSA. To assay protection against bacterial cytotoxicity, P. aeruginosa clinical isolate 6206 was used instead (40 μl/well; 10^6 cfu/ml for 3 h). Dead cells were quantified by Trypan-blue (0.04%) staining.

[3] = system: human corneal epithelial cells (TiHCE); assay: Effect of peptide treatment alone on epithelial cells; type: cell-based
laboratory strain PA14 = assay: Antimicrobial activity assay (viable counts at 3 h); type: cell-based, Pseudomonas aeruginosa; settings: 200 μg/ml (FIG. 2D)
Procedure: as §1, §2

[4] = system: P. aeruginosa clinical isolate 6294; type: cell-based; settings: Pseudomonas aeruginosa, 3 h, 200 μg/ml
Procedure: as §1, §2

[5] = system: P. aeruginosa strain 6206; type: cell-based; settings: Pseudomonas aeruginosa, 3 h, 200 μg/ml
Procedure: (§3) Antimicrobial activity against Pseudomonas aeruginosa clinical and laboratory isolates, as well as ATCC strains of Escherichia coli, Enterococcus faecalis, Serratia marcescens, Staphylococcus epidermidis, Staphylococcus aureus, Streptococcus pyogenes and Candida albicans (˜10^6 cfu/ml each) were evaluated by viable counts at 3 h. Protection against bacterial invasion (quantified by gentamicin survival) and cytotoxicity (trypan blue staining) were assessed using fresh TiHCE cells inoculated with P. aeruginosa clinical isolates 6294 (invasive, ˜10^6 cfu for 2 h) or 6206 (cytotoxic, ˜10^4 cfu for 3 h). Peptide binding and membrane permeabilization by hKRT6A 19mer was determined by N-terminal TAMRA-tagged peptides (110 μM) and an impermeant SYTOX blue nucleic acid stain (5 μM; Invitrogen).
(§4) For antimicrobial spectrum analysis, Escherichia coli (ATCC 25922), Enterococcus faecalis (ATCC 51188), Serratia marcescens (ATCC 43862), Staphylococcus epidermidis (ATCC 12228), Staphylococcus aureus (ATCC 29213), Streptococcus pyogenes (ATCC 19615) and Candida albicans (ATCC 90028) were used. […] Starting inoculum at a concentration of ˜10^8 cfu/ml was prepared fresh by suspending bacteria in KBM media (Lonza) until OD650 reading is ˜0.1. […]

[6] = system: Staphylococcus aureus (ATCC 29213); assay: Antimicrobial spectrum analysis; type: cell-based; settings: 200 μg/mL, 3 h
Procedure: (§5) Telomerase-immortalized human corneal epithelial cells (TiHCE) were cultured as described (Robertson D M et al., 2005 Invest Ophthalmol Vis Sci. 46:470-478). Crude lysates of media-treated and human tear fluid-treated cells were collected by freeze-thawing in KBM or saline (for assays) or 10 mM Tris-HCl (pH 8.5) (for mass spectrometry). Serial fractionation of lysates was performed using centrifugal filters with cutoffs at ˜100, ˜10 and ˜3 kDa (Millipore). […] Synthetic peptides of hKRT6A were obtained from Biomatik at a purity of >95%. Antimicrobial activity against Pseudomonas aeruginosa clinical and laboratory isolates, as well as ATCC strains of Escherichia coli, Enterococcus faecalis, Serratia marcescens, Staphylococcus epidermidis, Staphylococcus aureus, Streptococcus pyogenes and Candida albicans (˜10^6 cfu/ml each) were evaluated by viable counts at 3 h. […] Statistical analysis between two groups was performed using Student's t-Test.
as §4

[7] = system: Staphylococcus epidermidis (ATCC 12228); assay: Antimicrobial spectrum analysis; type: cell-based; settings: 200 μg/mL, 3 h
Procedure: as §3, §4

[8] = system: Serratia marcescens (ATCC 43862); assay: Antimicrobial spectrum analysis; type: cell-based; settings: 200 μg/mL, 3 h
Procedure: as §1, §2

[9] = system: Escherichia coli (ATCC 25922); assay: Antimicrobial spectrum analysis; type: cell-based; settings: 200 μg/mL, 3 h
Procedure: as §3, §4

[10] = system: Enterococcus faecalis (ATCC 51188); assay: Antimicrobial spectrum analysis; type: cell-based; settings: 200 μg/mL, 3 h
Procedure: as §3, §4

[11] = system: Streptococcus pyogenes (ATCC 19615); type: cell-based; settings: 200 μg/mL, 3 h
Procedure: as §5, §4

[12] = system: Candida albicans (ATCC 90028); assay: Antimicrobial spectrum analysis; type: cell-based; settings: 200 μg/mL, 3 h
Procedure: as §3, §4

[13] = Bactericidal effect of phosphorylated vs non-phosphorylated 19-mer (FIG. 6); type: cell-based
From the text: Synthetic 19-mer KDAMP peptides were synthesized with or without tyrosine phosphorylation. The bactericidal effect of the peptides was compared.

With “RAIGGGLSSVGGGSSTIKY [19mer, RAIGGGLSSVGGGSSTIKY]” the reduced viability [1] was 96.9%, the reduced viability (laboratory strain PAO1) was 96.1% and the “protection against bacterial induced cytotoxicity compared to controls” value [2] was 85.1%. The “impact of peptide treatment alone on epithelial cells (morphology, trypan blue exclusion)” value [3] was “not visibly impacted”, the reduced viability (laboratory strain PA14) was 98.7% and the reduced viability [4] was 97.5%. It also gave a reduced viability [5] of 99.7%.

For “AIGGGLSSVGGGSSTIK [17mer, AIGGGLSSVGGGSSTIK]”, the “activity (in words)” value [6] was “neither the 19- nor the 17mer peptide was active”, the “activity (in words)” value [7] was “neither the 19- nor the 17mer peptide was active” and the “activity (in words)” value [8] was “neither the 19- nor the 17mer peptide was active”. For the same substance, the “activity (in words)” value [9] was “neither the 19- nor the 17mer peptide was active”, the “activity (in words)” value [10] was “neither the 19- nor the 17mer peptide was active” and the “susceptibility (in words)” value [11] was “not susceptible”. For the same substance, the “activity (in words)” value [12] was “neither the 19- nor the 17mer peptide was active”.

With “RAIGGGLSSVGGGSSTIK(phospho-Y) (RAIGGGLSSVGGGSSTIK[pY]) [phosphorylated 19-mer]” the “bactericidal activity compared with the non-phosphorylated 19-mer” value [13] was “significantly increased bactericidal activity”.
